According to ChEMBL document CHEMBL4261580, “Novel antitumor compound optimized from natural saponin Albiziabioside A induced caspase-dependent apoptosis and ferroptosis as a p53 activator through the mitochondrial pathway” (Eur J Med Chem, 2018):
Activity calls are given as the source filed them. The rule behind the calls is not given here.

Legend:
[1] = tested on: HCT-116; assay: Cytotoxicity against human HCT116 cells pretreated with ferrostatin-1 followed by compound addition up to 5 uM measured after 72 hrs by MTT assay; assay type: functional, cell-based
[2] = tested on: HCT-116; assay: Induction of apoptosis in human HCT116 cells assessed as cell shrinkage at 0.31 to 5 uM after 24 hrs by DAPI staining-based fluorescence microscopic method; assay type: functional
[3] = tested on: HCT-116; assay: Effect on caspase-8 expression in human HCT116 cells up to 5 uM after 48 hrs by Western blot analysis; assay type: functional, cell-based
[4] = tested on: HCT-116; assay: Induction of apoptosis in human HCT116 cells after 72 hrs by Annexin V-FITC/propidium iodide staining-based flow cytometric analysis; assay type: functional, cell-based
[5] = tested on: HCT-116; assay: Induction of apoptosis in human HCT116 cells assessed as viable cells at 1.25 uM after 72 hrs by Annexin V-FITC/propidium iodide staining-based flow cytometric analysis (reference value: 92.86%); assay type: functional; conditions: HCT-116, 72 h, read-out: Activity
[6] = tested on: HCT-116; assay: Induction of apoptosis in human HCT116 cells assessed as late apoptotic cells at 1.25 uM after 72 hrs by Annexin V-FITC/propidium iodide staining-based flow cytometric analysis (reference value: 1.08%); assay type: functional
[7] = tested on: Mus musculus; assay: Toxicity in BALB/c nude mouse xenografted with human HCT116 cells assessed as abnormality in heart at 10 to 20 mg/kg, iv administered once per day by hematoxylin and eosin staining-based microscopic method; assay type: organism-based; conditions: in vivo
[8] = tested on: HCT-116; assay: Cytotoxicity against human HCT116 cells transfected with p53-siRNA up to 5 uM after 72 hrs by MTT assay; assay type: functional, cell-based
[9] = tested on: HepG2; assay: Antiproliferative activity against human HepG2 cells after 72 hrs by MTT assay; assay type: functional, cell-based; conditions: HepG2, 72 h
[10] = tested on: HCT-116; assay: Disruption of mitochondrial membrane potential in human HCT116 cells assessed as collapse of mitochondrial membrane potential at 0.31 uM after 72 hrs by JC1 staining-based flow cytometry method (reference value: […]); assay type: functional
[11] = tested on: HCT-116; assay: Induction of intracellular ROS generation in human HCT116 cells after 72 hrs by DCF-DA-dye based fluorescence microscopy; assay type: functional, cell-based
[12] = tested on: HCT-116; assay: Antitumor activity against human HCT116 cells xenografted in BALB/c nude mouse assessed as decrease in tumor size at 20 mg/kg, iv administered once per day for 14 days and measured every 2 days; assay type: functional; parameters: scale not given: the % may be the effect or the level left
[13] = tested on: HCT-116; assay: Cytotoxicity against human HCT116 cells pretreated with Na+ followed by compound addition up to 5 uM measured after 72 hrs by MTT assay; assay type: functional, cell-based
[14] = tested on: Mus musculus; assay: Toxicity in BALB/c nude mouse xenografted with human HCT116 cells assessed as abnormality in liver at 10 to 20 mg/kg, iv administered once per day by hematoxylin and eosin staining-based microscopic method; assay type: organism-based; conditions: in vivo
[15] = tested on: Mus musculus; assay: Toxicity in BALB/c nude mouse xenografted with human HCT116 cells assessed as change in body weight at 10 to 20 mg/kg, iv administered once per day for 14 days and measured every 2 days; assay type: organism-based; conditions: in vivo
[16] = tested on: HCT-116; assay: Disruption of mitochondrial membrane potential in human HCT116 cells assessed as collapse of mitochondrial membrane potential at 5 uM after 72 hrs by JC1 staining-based flow cytometry method (reference value: […]); assay type: functional
[17] = tested on: HCT-116; assay: Cytotoxicity against human HCT116 cells pretreated with Al3+ followed by compound addition up to 5 uM measured after 72 hrs by MTT assay; assay type: functional, cell-based
[18] = tested on: HCT-116; assay: Cytotoxicity in human HCT116 cells pretreated with Fe2+ followed by compound addition up to 5 uM measured after 72 hrs by MTT assay; assay type: functional, cell-based
[19] = tested on: HCT-116; assay: Cytotoxicity against human HCT116 cells up to 5 uM after 72 hrs in presence of caspase inhibitor z-VAD-fmk by MTT assay; assay type: functional, cell-based
[20] = tested on: Mus musculus; assay: Toxicity in BALB/c nude mouse xenografted with human HCT116 cells assessed as abnormality in kidney at 10 to 20 mg/kg, iv administered once per day by hematoxylin and eosin staining-based microscopic method; assay type: organism-based; conditions: in vivo
[21] = tested on: HCT-116; assay: Induction of apoptosis in human HCT116 cells assessed as necrotic cells at 5 uM after 72 hrs by Annexin V-FITC/propidium iodide staining-based flow cytometric analysis (reference value: 0.76%); assay type: functional
[22] = Antiproliferative activity against human HBMEC cells after 72 hrs by MTT assay; assay type: cell-based
[23] = tested on: HCT-116; assay: Induction of apoptosis in human HCT116 cells assessed as early apoptotic cells at 0.31 uM after 72 hrs by Annexin V-FITC/propidium iodide staining-based flow cytometric analysis (reference value: 5.30%); assay type: functional
[24] = tested on: HCT-116; assay: Cytotoxicity against human HCT116 cells pretreated with K+ followed by compound addition up to 5 uM measured after 72 hrs by MTT assay; assay type: functional, cell-based
[25] = tested on: HCT-116; assay: Induction of apoptosis in human HCT116 cells assessed as viable cells at 5 uM after 72 hrs by Annexin V-FITC/propidium iodide staining-based flow cytometric analysis (reference value: 92.86%); assay type: functional; conditions: HCT-116, 72 h, read-out: Activity
[26] = tested on: HCT-116; assay: Induction of intracellular ROS generation in human HCT116 cells at 1.25 uM after 72 hrs by DCF-DA-dye based fluorescence microscopy (reference value: 2.74%); assay type: functional
[27] = tested on: HCT-116; assay: Cytotoxicity against human HCT116 cells pretreated with Ca2+ followed by compound addition up to 5 uM measured after 72 hrs by MTT assay; assay type: functional, cell-based
[28] = tested on: HCT-116; assay: Antitumor activity against human HCT116 cells xenografted in BALB/c nude mouse assessed as decrease in tumor weight at 20 mg/kg, iv administered once per day for 14 days and measured every 2 days; assay type: functional; parameters: scale not given: the % may be the effect or the level left
[29] = tested on: HCT-116; assay: Cytotoxicity against human HCT116 cells pretreated with Mn2+ followed by compound addition up to 5 uM measured after 72 hrs by MTT assay; assay type: functional, cell-based

CC(=O)N[C@H]1[C@H](O[C@H]2CC[C@]3(C)[C@H]4CC=C5[C@@H]6CC(C)(C)CC[C@]6(C(=O)OCc6cn(-c7cccc(C(C)=O)c7)nn6)CC[C@@]5(C)[C@]4(C)CC[C@H]3C2(C)C)O[C@H](CO[C@@H]2OC[C@H](O)[C@H](O)[C@@H]2O)[C@@H](O)[C@@H]1O
Activity [1]: inactive | Activity [2]: Active | Activity [3]: inactive | Activity [4]: Dose-dependent effect | viability at 1.25 µM [5]: 65.1% | Activity [6]: 26.18% | Activity [7]: Non-Toxic | Activity [8]: inactive | IC50 [9]: 6.5 µM | Activity [10]: 89.03% | Activity [11]: Dose-dependent effect | Activity [12]: 71.8% | Activity [13]: Active | Activity [14]: Non-Toxic | Activity [15]: Non-Toxic | Activity [16]: 59.87% | Activity [17]: Active | Activity [18]: Active | Activity [19]: inactive | Activity [20]: Non-Toxic | Activity [21]: 1.86% | IC50 [22]: 32.2 µM | Activity [23]: 5.94% | Activity [24]: Active | viability at 5 µM [25]: 38.5% | Activity [26]: 20.35% | Activity [27]: Active | Activity [28]: 71.8% | Activity [29]: Active
